For 13 compounds, DC50 and IC50 results are on record in US20260256925A1, “INDAZOLE DERIVATIVES AS ESTROGEN RECEPTOR DEGRADERS” (REGENTS OF THE UNIVERSITY OF MICHIGAN, priority 2022, published 2026).

One experiment has as its target T1, ER (Homo sapiens, UniProt P03372).
T1 construct: endogenous in cells; probably T47D or MCF-7
T1 sequence (P03372 1-595): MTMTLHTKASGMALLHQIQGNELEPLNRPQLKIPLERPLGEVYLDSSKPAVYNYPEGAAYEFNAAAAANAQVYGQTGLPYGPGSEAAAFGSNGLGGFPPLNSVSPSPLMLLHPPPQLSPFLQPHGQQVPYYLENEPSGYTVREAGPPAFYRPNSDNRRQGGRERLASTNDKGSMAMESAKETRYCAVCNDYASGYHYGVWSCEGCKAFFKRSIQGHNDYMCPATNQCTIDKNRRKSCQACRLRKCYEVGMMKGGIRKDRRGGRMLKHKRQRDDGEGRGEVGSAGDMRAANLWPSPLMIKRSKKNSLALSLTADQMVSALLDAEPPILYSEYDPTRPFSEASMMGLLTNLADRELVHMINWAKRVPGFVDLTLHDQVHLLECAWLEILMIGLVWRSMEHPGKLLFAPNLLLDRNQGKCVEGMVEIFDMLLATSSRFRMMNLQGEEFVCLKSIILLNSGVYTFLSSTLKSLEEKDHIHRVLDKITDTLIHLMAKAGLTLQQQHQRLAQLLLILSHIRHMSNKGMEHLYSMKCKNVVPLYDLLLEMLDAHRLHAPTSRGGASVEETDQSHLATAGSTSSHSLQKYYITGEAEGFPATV
The experiment in a line: In-cell western blot analysis, relative ER percentage (compounds B1-B126). Format: cell-based. The following applies: ER degradation, 16 hours, read-out: ICW DC50. In a few lines: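 Readout was a two-colour infrared in-cell western of formaldehyde-fixed cells after 16 h compound exposure at 0.5% DMSO, with 40,000 or 10,000 cells/well plated the previous night. Relative ER percentage compares treated wells against untreated/DMSO-treated wells taken as 100%.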

Experiment [1] in a line: Cell growth assay, WST-8 (compounds B1-B126). The following applies: 96 h; T47D cell line, WST-8, 4 days; read-out: Cell growth inhibition in T47D cell line IC50. Format: cell-based. In short, it runs like this:
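Read-out is WST-8 absorbance at 450 nm (2.5 h, 37° C) as a fraction of vehicle control, from three separate repeats. Compound exposure lasted 4 days, starting one day after plating 1500 cells/well.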

Molecules are shown by their SMILES. pIC50: −log10 of the molar value.

For orientation: DC50 means the concentration giving 50% degradation. One may read the pIC50 as −log10 of the IC50, conventionally taken in molar units. For `C[C@@H]1Cc2c(ccc3[nH]ncc23)[C@@H](c2c(F)cc(NC3CC4(C3)CN(CC(=O)N3CCN5c6cc7c(cc6OC[C@@H]5C3)C(=O)N(C3CCC(=O)NC3=O)C7)C4)cc2F)N1CC(F)F` (stereo partly drawn) [Compound B42, 3-((S)-3-(2-(6-((4-((6S,8R)-7-(2,2-difluoroethyl)-8-methyl-6,7,8,9-tetrahydro-3H-pyrazolo[4,3-f]isoquinolin-6-yl)-3,5-difluorophenyl)amino)-2-azaspiro[3.3]heptan-2-yl)acetyl)-8-oxo-1,2,3,4,4a,5,8,10-octahydro-9H-pyrazino[1′,2′:4,5][1,4]oxazino[2,3-f]isoindol-9-yl)piperidine-2,6-dione], the DC50 on ER is less than 10 nM. Further, the pIC50 in experiment [1] is greater than 9.00.

For the compound `C[C@H]1Cc2c(ccc3[nH]ncc23)[C@H](c2ccc(NC3CN(CC(=O)N4CCN5c6cc7c(cc6OC[C@@H]5C4)C(=O)N(C4CCC(=O)NC4=O)C7)C3)cn2)N1CC(F)(F)F` (stereo partly drawn) [Compound B43, 3-((S)-3-(2-(3-((6-((6R,8S)-8-methyl-7-(2,2,2-trifluoroethyl)-6,7,8,9-tetrahydro-3H-pyrazolo[4,3-f]isoquinolin-6-yl)pyridin-3-yl)amino)azetidin-1-yl)acetyl)-8-oxo-1,2,3,4,4a,5,8,10-octahydro-9H-pyrazino[1′,2′:4,5][1,4]oxazino[2,3-f]isoindol-9-yl)piperidine-2,6-dione], the DC50 at ER was 10 to 100 nM. Moreover, the negative-log IC50 (pIC50) in experiment [1] was 8.00 to 9.00.

For `C[C@@H]1Cc2c(ccc3[nH]ncc23)[C@@H](c2c(F)cc(NC3CC4(C3)CN(C(=O)CN3Cc5cc6c(cc5C3)C(=O)N(C3CCC(=O)NC3=O)C6=O)C4)cc2F)N1CC(F)F` (stereo partly drawn) [Compound B44, 6-(2-(6-((4-((6S,8R)-7-(2,2-difluoroethyl)-8-methyl-6,7,8,9-tetrahydro-3H-pyrazolo[4,3-f]isoquinolin-6-yl)-3,5-difluorophenyl)amino)-2-azaspiro[3.3]heptan-2-yl)-2-oxoethyl)-2-(2,6-dioxopiperidin-3-yl)-6,7-dihydropyrrolo[3,4-f]isoindole-1,3(2H,5H)-dione], the half-maximal degradation concentration (DC50) at ER was less than 10 nM. For the same compound, in experiment [1], the negative logarithm of the IC50 (pIC50) is greater than 9.00.

`C[C@@H]1Cc2c(ccc3[nH]ncc23)[C@@H](c2c(F)cc(NC3CC4(C3)CN(CC(=O)N3Cc5cc6c(cc5C3)C(=O)N(C3CCC(=O)NC3=O)C6=O)C4)cc2F)N1CC(F)F` (stereo partly drawn) [Compound B45, 6-(2-(6-((4-((6S,8R)-7-(2,2-difluoroethyl)-8-methyl-6,7,8,9-tetrahydro-3H-pyrazolo[4,3-f]isoquinolin-6-yl)-3,5-difluorophenyl)amino)-2-azaspiro[3.3]heptan-2-yl)acetyl)-2-(2,6-dioxopiperidin-3-yl)-6,7-dihydropyrrolo[3,4-f]isoindole-1,3(2H,5H)-dione]: the DC50 at ER lay in the range of 10 to 100 nM. In addition, the pIC50 in experiment [1] was 8.00 to 9.00.

For the compound `C[C@@H]1Cc2c(ccc3[nH]ncc23)[C@@H](c2c(F)cc(N3CCC(CN4CC(N5CCN6c7cc8c(cc7OC[C@@H]6C5)C(=O)N(C5CCC(=O)NC5=O)C8)C4)CC3)cc2F)N1CC(F)F` (stereo partly drawn) [Compound B46, 3-((S)-3-(1-((1-(4-((6S,8R)-7-(2,2-difluoroethyl)-8-methyl-6,7,8,9-tetrahydro-3H-pyrazolo[4,3-f]isoquinolin-6-yl)-3,5-difluorophenyl)piperidin-4-yl)methyl)azetidin-3-yl)-8-oxo-1,2,3,4,4a,5,8,10-octahydro-9H-pyrazino[1′,2′:4,5][1,4]oxazino[2,3-f]isoindol-9-yl)piperidine-2,6-dione], the half-maximal degradation concentration (DC50) on ER was less than 10 nM. The negative-log IC50 (pIC50) in experiment [1] was greater than 9.00.

For `C[C@@H]1Cc2c(ccc3[nH]ncc23)[C@@H](c2ccc(N3CCC4(CCN(CC(=O)N5Cc6cc7c(cc6C5)C(=O)N(C5CCC(=O)NC5=O)C7=O)CC4)CC3)cn2)N1CC(F)(F)F` (stereo partly drawn) [Compound B48, 2-(2,6-dioxopiperidin-3-yl)-6-(2-(9-(6-((6S,8R)-8-methyl-7-(2,2,2-trifluoroethyl)-6,7,8,9-tetrahydro-3H-pyrazolo[4,3-f]isoquinolin-6-yl)pyridin-3-yl)-3,9-diazaspiro[5.5]undecan-3-yl)acetyl)-6,7-dihydropyrrolo[3,4-f]isoindole-1,3(2H,5H)-dione], the DC50 on ER was greater than 100 nM. Moreover, the pIC50 in experiment [1] is less than 8.00.

For the compound `C[C@@H]1Cc2c(ccc3[nH]ncc23)[C@@H](c2ccc(N3CCC4(CCN(C(=O)CN5Cc6cc7c(cc6C5)C(=O)N(C5CCC(=O)NC5=O)C7=O)CC4)CC3)cn2)N1CC(F)F` (stereo partly drawn) [Compound B49, 6-(2-(9-(6-((6S,8R)-7-(2,2-difluoroethyl)-8-methyl-6,7,8,9-tetrahydro-3H-pyrazolo[4,3-f]isoquinolin-6-yl)pyridin-3-yl)-3,9-diazaspiro[5.5]undecan-3-yl)-2-oxoethyl)-2-(2,6-dioxopiperidin-3-yl)-6,7-dihydropyrrolo[3,4-f]isoindole-1,3(2H,5H)-dione], on ER, the 50% degradation concentration (DC50) fell in the range of 10 to 100 nM. Further, the pIC50 in experiment [1] was less than 8.00.

In the case of `COc1cc(N2CCC3(CCN(CC(=O)N4Cc5cc6c(cc5C4)C(=O)N(C4CCC(=O)NC4=O)C6=O)CC3)CC2)ccc1[C@@H]1c2ccc3[nH]ncc3c2C[C@@H](C)N1CC(F)F` (stereo partly drawn) [Compound B51, 6-(2-(9-(4-((6S,8R)-7-(2,2-difluoroethyl)-8-methyl-6,7,8,9-tetrahydro-3H-pyrazolo[4,3-f]isoquinolin-6-yl)-3-methoxyphenyl)-3,9-diazaspiro[5.5]undecan-3-yl)acetyl)-2-(2,6-dioxopiperidin-3-yl)-6,7-dihydropyrrolo[3,4-f]isoindole-1,3(2H,5H)-dione], the 50% degradation concentration (DC50) on ER fell in the range of 10 to 100 nM. In addition, the pIC50 in experiment [1] was less than 8.00.

As to `C[C@@H]1Cc2c(ccc3[nH]ncc23)[C@@H](c2ccc(N3CCC(N4CC(N5CCN6c7cc8c(cc7OC[C@@H]6C5)C(=O)N(C5CCC(=O)NC5=O)C8)C4)CC3)cn2)N1CC(F)(F)F` (stereo partly drawn) [Compound B52, 3-((S)-3-(1-(1-(6-((6S,8R)-8-methyl-7-(2,2,2-trifluoroethyl)-6,7,8,9-tetrahydro-3H-pyrazolo[4,3-f]isoquinolin-6-yl)pyridin-3-yl)piperidin-4-yl)azetidin-3-yl)-8-oxo-1,2,3,4,4a,5,8,10-octahydro-9H-pyrazino[1′,2′:4,5][1,4]oxazino[2,3-f]isoindol-9-yl)piperidine-2,6-dione], on ER, the half-maximal degradation concentration (DC50) is less than 10 nM. Besides, in experiment [1], the pIC50 is greater than 9.00.

Take `COc1cc(N2CCC(N3CC(N4CCN5c6cc7c(cc6OC[C@@H]5C4)C(=O)N(C4CCC(=O)NC4=O)C7)C3)CC2)ccc1[C@@H]1c2ccc3[nH]ncc3c2C[C@@H](C)N1CC(F)F` (stereo partly drawn) [Compound B53, 3-((S)-3-(1-(1-(4-((6S,8R)-7-(2,2-difluoroethyl)-8-methyl-6,7,8,9-tetrahydro-3H-pyrazolo[4,3-f]isoquinolin-6-yl)-3-methoxyphenyl)piperidin-4-yl)azetidin-3-yl)-8-oxo-1,2,3,4,4a,5,8,10-octahydro-9H-pyrazino[1′,2′:4,5][1,4]oxazino[2,3-f]isoindol-9-yl)piperidine-2,6-dione]: the DC50 at ER was 10 to 100 nM. Moreover, the pIC50 in experiment [1] was greater than 9.00.

As for `COc1cc(N2CCC3(CC2)CC(CN2CCN4c5cc6c(cc5OC[C@@H]4C2)C(=O)N(C2CCC(=O)NC2=O)C6)C3)ccc1[C@@H]1c2ccc3[nH]ncc3c2C[C@@H](C)N1CC(F)F` (stereo partly drawn) [Compound B54, 3-((S)-3-((7-(4-((6S,8R)-7-(2,2-difluoroethyl)-8-methyl-6,7,8,9-tetrahydro-3H-pyrazolo[4,3-f]isoquinolin-6-yl)-3-methoxyphenyl)-7-azaspiro[3.5]nonan-2-yl)methyl)-8-oxo-1,2,3,4,4a,5,8,10-octahydro-9H-pyrazino[1′,2′:4,5][1,4]oxazino[2,3-f]isoindol-9-yl)piperidine-2,6-dione], the half-maximal degradation concentration (DC50) at ER was less than 10 nM. In experiment [1], the pIC50 was 8.00 to 9.00.

Regarding `COc1cc(N2CCC3(CC2)CC(CN2CCN4c5cc6c(cc5OC[C@H]4C2)C(=O)N(C2CCC(=O)NC2=O)C6)C3)ccc1[C@@H]1c2ccc3[nH]ncc3c2C[C@@H](C)N1CC(F)F` (stereo partly drawn) [Compound B55, 3-((R)-3-((7-(4-((6S,8R)-7-(2,2-difluoroethyl)-8-methyl-6,7,8,9-tetrahydro-3H-pyrazolo[4,3-f]isoquinolin-6-yl)-3-methoxyphenyl)-7-azaspiro[3.5]nonan-2-yl)methyl)-8-oxo-1,2,3,4,4a,5,8,10-octahydro-9H-pyrazino[1′,2′:4,5][1,4]oxazino[2,3-f]isoindol-9-yl)piperidine-2,6-dione], the DC50 at ER was greater than 100 nM. Also, the negative-log IC50 (pIC50) in experiment [1] was 8.00 to 9.00.

Turning to `C[C@@H]1Cc2c(ccc3[nH]ncc23)[C@@H](c2ccc(N3CC4(CCC(CN5CCC6(CC5)COc5c6ccc6c5CN(C5CCC(=O)NC5=O)C6=O)CC4)C3)cn2)N1CC(F)(F)F` (stereo partly drawn) [Compound B57, 3-(1′-((2-(6-((6S,8R)-8-mcthyl-7-(2,2,2-trifluoroethyl)-6,7,8,9-tetrahydro-3H-pyrazolo[4,3-f]isoquinolin-6-yl)pyridin-3-yl)-2-azaspiro[3.5]nonan-7-yl)methyl)-6-oxo-6,8-dihydro-2H,7H-spiro[furo[2,3-e]isoindole-3,4′-piperidin]-7-yl)piperidine-2,6-dione], the half-maximal degradation concentration (DC50) at ER is less than 10 nM. Further, the pIC50 in experiment [1] is greater than 9.00.
